Source: article PMC4168902 (2014)

Columns and labels:
[1] = system: poly A–poly U (poly rA–poly rU) (RNA, polymer) A/U; assay: UV thermal melting at 260 nm; details: Na+ (sodium cacodylate, I = 0.05 M); sodium cacodylate pH 7.0; r = [compound]/[polynucleotide] = 0.3; per base
[2] = system: poly dA–poly dT (DNA, polymer) A/T; assay: UV thermal melting at 260 nm; details: Na+ (sodium cacodylate, I = 0.05 M); sodium cacodylate pH 7.0; r = [compound]/[polynucleotide] = 0.3; per base
[3] = system: poly dAdT–poly dAdT (DNA, polymer) AT; assay: UV thermal melting at 260 nm; details: Na+ (sodium cacodylate, I = 0.05 M); sodium cacodylate pH 7.0; r = [compound]/[polynucleotide] = 0.3; per base
[4] = system: poly A–poly U (poly rA–poly rU) (RNA, polymer) A/U; assay: UV–vis titration, Scatchard fit; details: Na+ (sodium cacodylate, I = 0.05 M); sodium cacodylate pH 7.0, 25 °C; polynucleotide as nucleobases/phosphates; per base
[5] = system: poly dA–poly dT (DNA, polymer) A/T; assay: UV–vis titration, Scatchard fit; details: Na+ (sodium cacodylate, I = 0.05 M); sodium cacodylate pH 7.0, 25 °C; polynucleotide as nucleobases/phosphates; per base
[6] = system: poly dG–poly dC (DNA, polymer) G/C; assay: UV–vis titration, Scatchard fit; details: Na+ (sodium cacodylate, I = 0.05 M); sodium cacodylate pH 7.0, 25 °C; polynucleotide as nucleobases/phosphates; per base
[7] = system: poly dAdT–poly dAdT (DNA, polymer) AT; assay: UV–vis titration, Scatchard fit; details: Na+ (sodium cacodylate, I = 0.05 M); sodium cacodylate pH 7.0, 25 °C; polynucleotide as nucleobases/phosphates; per base

ΔTm [1] [°C]	ΔTm [2] [°C]	ΔTm [3] [°C]	log Ks [4]	log Ks [5]	log Ks [6]	log Ks [7]	SMILES
0	0	0	–	–	–	–	CCCCCCOc1ccccc1C(=O)C1=CNc2ccccc2N=CC(C(=O)c2ccccc2OCCC[n+]2ccccc2)=CNc2ccccc2N=C1
–	–	–	6.6	5.4	5.8	–	Nc1ncnc2c1ncn2CCCCCOc1ccccc1C(=O)C1=CNc2ccccc2N=CC(C(=O)c2ccccc2OCCCCC[n+]2ccccc2)=CNc2ccccc2N=C1
0.5	0.7	< 3	6.0	6.2	5.5	6.1	Nc1ncnc2c1ncn2CCCOc1ccccc1C(=O)C1=CNc2ccccc2N=CC(C(=O)c2ccccc2OCCC[n+]2ccccc2)=CNc2ccccc2N=C1
0	0	< 2	5.8	5.9	5.7	5.5	C[N+](C)(C)CCCOc1ccccc1C(=O)C1=CNc2ccccc2N=CC(C(=O)c2ccccc2OCCCn2cnc3c(N)ncnc32)=CNc2ccccc2N=C1
0	0	0	5.7	5.0	5.6	–	Nc1ncnc2c1ncn2CCCCCCOc1ccccc1C(=O)C1=CNc2ccccc2N=CC(C(=O)c2ccccc2OCCCCCC[n+]2ccccc2)=CNc2ccccc2N=C1
